This test relates to Plasmodium berghei. As to the kind of experiment: Luciferase/luciferin-expressing antifolate-resistant parasites were used to infect a culture of HepG2 cells that were pre-incubated with compounds. Infected hepatocytes emit light due to the luciferase reaction. Assay results are presented as the percent inhibition of light emission compared to control. […]. The class given is functional. To be noted: sporozoite; for IC90: read-out: LUCIFERASE INFECTION ASSAY - IC90.

[1] abbreviates: read-out: LUCIFERASE INFECTION ASSAY - IC50.

This passage reports IC50 and IC90 results from ChEMBL document CHEMBL4483862, “Open-source discovery of chemical leads for next-generation chemoprotective antimalarials” (2018).

What is called IC50 is the midpoint of a concentration-inhibition curve. As a reminder, the IC90 is the concentration at which the effect reaches the 90% level.

Each structure is given as a SMILES string. Some results are limits rather than exact numbers.

Regarding `CC(C)c1ccc(CN(C(=O)Cc2c[nH]c3ccccc23)C2CC2)cc1`, the IC90 is greater than 10 µM. Moreover, the IC50 (PBLUC_HILL_SLOPE 3.49, PBLUC_R_SQUARED 0.314, read-out: LUCIFERASE INFECTION ASSAY - IC50) was greater than 10 µM.
Regarding `CC1=C(C(=O)OCc2ccccc2)C(c2ccc(C(F)(F)F)cc2)CC(=O)N1` (stereo not drawn), the IC90 was greater than 8.48 µM. In addition, the IC50 under setting [1] was greater than 8.48 µM.
`O=C(NNC(=O)c1cc2c(s1)CCCCC2)c1ccccn1`: the IC90 amounted to 8.35 µM. For the same compound, for the setting “PBLUC_HILL_SLOPE 4.79, PBLUC_R_SQUARED 0.138, read-out: LUCIFERASE INFECTION ASSAY - IC50”, the IC50 was 5.28 µM.
Take `CCCCC(=O)NNC(=O)c1nn(-c2ccccc2)cc1O`: the IC90 amounted to 6.61 µM. Also, where the note is “HEPG2TOX_HILL_SLOPE 1.96, 5.56, HEPG2TOX_R_SQUARED 0.938, 0.275, PBLUC_HILL_SLOPE 4.09, 13.0, PBLUC_R_SQUARED 0.105, 0.390, read-out: LUCIFERASE INFECTION ASSAY - IC50”, the IC50 was found to be 4.4 µM.
On to `CNC(=O)C1CN(C(=O)c2oc3ccc(OC)cc3c2C)c2ccccc2O1` (stereo not drawn), for which the concentration for an effect of 90% (IC90) was greater than 10 µM. In addition, under “HEPG2TOX_HILL_SLOPE 21.4, HEPG2TOX_R_SQUARED 0.941, read-out: LUCIFERASE INFECTION ASSAY - IC50”, the IC50 is greater than 10 µM.
Turning to `Oc1cccc(-c2cnc3cnc(-c4cccs4)cn23)c1`, the IC90 is greater than 11.2 µM. For the same compound, the IC50 under setting [1] is greater than 11.2 µM.
Consider `COc1ncccc1-c1cc2c(cn1)nc(Nc1cccc(C(F)(F)F)c1)n2C`, for which the 90% effect concentration (IC90) is greater than 10 µM. Moreover, the IC50 (PBLUC_HILL_SLOPE 1.56, PBLUC_R_SQUARED 0.782, read-out: LUCIFERASE INFECTION ASSAY - IC50) amounted to 2.89 µM.
For the compound `Cc1cc2ncc(-c3ccnc(SCC(=O)c4ccc(Cl)cc4)n3)c(C)n2n1`, the IC90 was greater than 8.05 µM. Further, the IC50 under setting [1] was greater than 8.05 µM.
For the compound `CCn1c(C)nc2cc(C(=O)N/N=C/c3sc(N4CCCCC4)nc3-c3cccs3)ccc21`, the IC90 amounted to 4.03 µM. Where the note is “HEPG2TOX_HILL_SLOPE 15, HEPG2TOX_R_SQUARED 0.462, PBLUC_HILL_SLOPE 10.3, PBLUC_R_SQUARED 0.738, read-out: LUCIFERASE INFECTION ASSAY - IC50”, the IC50 turned out to be 3.26 µM.
Turning to `Clc1cccc(-c2cc3c(Nc4ccccn4)nccc3[nH]2)c1`, the IC90 came to 6.66 µM. Besides, the IC50 under setting [1] was 6.48 µM.
As to `Cc1cc(NC(C)C)n2ncc(-c3ccc(F)cc3)c2n1`, the IC90 is 5.57 µM. Also, the IC50 (FFLUC_HILL_SLOPE 0.941, FFLUC_R_SQUARED 0.965, HEPG2TOX_HILL_SLOPE 0.182, HEPG2TOX_R_SQUARED 0.624, PBLUC_HILL_SLOPE 0.618, PBLUC_R_SQUARED 0.897, read-out: LUCIFERASE INFECTION ASSAY - IC50) worked out at 0.16 µM.
Turning to `Cc1ccc(-n2c(C)cc(-c3csc(NC(=O)c4cccc(S(=O)(=O)N5CCc6ccccc65)c4)n3)c2C)cc1`, the IC90 is greater than 10 µM. Also, the IC50 (FFLUC_HILL_SLOPE 15.8, FFLUC_R_SQUARED 0.357, read-out: LUCIFERASE INFECTION ASSAY - IC50) is greater than 10 µM.
Take `CCNc1ccc(C(=O)Nc2ccc3nc(C)sc3c2)cc1[N+](=O)[O-]`: the IC90 was greater than 10 µM. The IC50 (HEPG2TOX_HILL_SLOPE 12, HEPG2TOX_R_SQUARED 0.881, PBLUC_HILL_SLOPE 13.1, PBLUC_R_SQUARED 0.554, read-out: LUCIFERASE INFECTION ASSAY - IC50) came to 8.97 µM.
With `COc1cc(OC)c(NC(=O)CN2CCN(Cc3csc4ccccc34)CC2)cc1Cl`, the IC90 was 9.45 µM. For the same compound, where the note is “HEPG2TOX_HILL_SLOPE 1.28, HEPG2TOX_R_SQUARED 0.885, PBLUC_HILL_SLOPE 11.3, PBLUC_R_SQUARED 0.661, read-out: LUCIFERASE INFECTION ASSAY - IC50”, the IC50 turned out to be 7.79 µM.
With `CCOC(=O)c1c(C)[nH]c(N=Nc2cccc(C(F)(F)F)c2)c1C`, the IC90 is greater than 10 µM. Further, under setting [1], the IC50 was greater than 10 µM.
For the compound `COc1ccc(C2=NN=C/C2=N\Nc2ccccc2)cc1`, the IC90 was 3.89 µM. Besides, the IC50 (HEPG2TOX_HILL_SLOPE 2.19, HEPG2TOX_R_SQUARED 0.971, PBLUC_HILL_SLOPE 2.49, PBLUC_R_SQUARED 0.567, read-out: LUCIFERASE INFECTION ASSAY - IC50) amounted to 1.61 µM.
Consider `O=C(COc1ccccc1C(=O)N/N=C/c1ccccc1O)Nc1ccc(SC(F)F)cc1`, for which the IC90 is 1.53 µM. Besides, the 50% inhibitory concentration (IC50) (HEPG2TOX_HILL_SLOPE 0.754, HEPG2TOX_R_SQUARED 0.891, PBLUC_HILL_SLOPE 11.1, PBLUC_R_SQUARED 0.496, read-out: LUCIFERASE INFECTION ASSAY - IC50) amounted to 1.26 µM.
As to `CN1\C(=C/C=N/N=C/C2=C(N3CCOCC3)C(=C\c3ccc([N+](=O)[O-])cc3)/CC2)C(C)(C)c2ccccc21`, the IC90 amounted to 9.46 µM. The half-inhibitory concentration (IC50) (PBLUC_HILL_SLOPE 22.4, PBLUC_R_SQUARED 0.296, read-out: LUCIFERASE INFECTION ASSAY - IC50) amounted to 8.58 µM.
As for `CC(C)=CC(=O)Nc1scc(-c2ccccc2)c1C(=O)OCC(=O)N(CCC#N)c1cc(C)cc(C)c1`, the IC90 was greater than 10 µM. Moreover, the IC50 under setting [1] was greater than 10 µM.
With `COc1ccc(/C=N/OCC(=O)Nc2ccccc2C(F)(F)F)cc1`, the IC90 is greater than 10 µM. Under “PBLUC_HILL_SLOPE 0.525, PBLUC_R_SQUARED 0.458, read-out: LUCIFERASE INFECTION ASSAY - IC50”, the IC50 was greater than 10 µM.
In the case of `CN1CCN(c2ccccc2NC(=O)c2cccc(Oc3ccccc3)c2)CC1`, the IC90 stood at 5.25 µM. Also, the IC50 (PBLUC_HILL_SLOPE 1.09, PBLUC_R_SQUARED 0.715, read-out: LUCIFERASE INFECTION ASSAY - IC50) came out at 0.704 µM.
`Cc1nc(Sc2nnc3ccccn23)c2c3c(sc2n1)CCCC3`: the IC90 was determined as 3.52 µM. Also, under setting [1], the IC50 stood at 2.94 µM.
With `CC(Cc1cccs1)N(Cc1ccc(Cl)cc1)C(=O)c1ccc(Cl)c(S(=O)(=O)N2CCCCC2)c1` (stereo not drawn), the IC90 is greater than 10 µM. Further, the IC50 (FFLUC_HILL_SLOPE 17, FFLUC_R_SQUARED 0.198, read-out: LUCIFERASE INFECTION ASSAY - IC50) was greater than 10 µM.
`O=C(NC1CC1)c1ccc(-c2cn3c(-c4ccc(CO)cc4)cnc3cn2)cc1`: the IC90 is greater than 8.58 µM. Moreover, the IC50 (FFLUC_HILL_SLOPE 0.381, FFLUC_R_SQUARED 0.0382, PBLUC_HILL_SLOPE 16.7, PBLUC_R_SQUARED 0.0287, read-out: LUCIFERASE INFECTION ASSAY - IC50) was 8.32 µM.
Turning to `O=C(c1cnn(C(=O)c2nn(-c3ccc(Cl)cc3)cc2O)c1)c1ccccc1O`, the IC90 turned out to be 3.83 µM. Where the note is “HEPG2TOX_HILL_SLOPE 0.890, 1.11, HEPG2TOX_R_SQUARED 0.813, 0.357, PBLUC_HILL_SLOPE 9.04, 15.6, PBLUC_R_SQUARED 0.0255, 0.659, read-out: LUCIFERASE INFECTION ASSAY - IC50”, the IC50 was determined as 3.15 µM.
Regarding `CCOc1cc2ccccc2cc1C(=O)NNC(=O)c1ccccn1`, the IC90 was 1.23 µM. The IC50 (HEPG2TOX_HILL_SLOPE 1.13, 0.817, HEPG2TOX_R_SQUARED 0.858, 0.909, PBLUC_HILL_SLOPE 4.86, PBLUC_R_SQUARED 0.852, read-out: LUCIFERASE INFECTION ASSAY - IC50) is 0.78 µM.
For the compound `Cc1cc(C(=O)C(C)OC(=O)c2ccc(NS(=O)(=O)c3ccc4c(c3)OCCO4)cc2)c(C)n1-c1ccc(Cl)cc1` (stereo not drawn), the IC90 was greater than 10 µM. Also, the IC50 (FFLUC_HILL_SLOPE 2.2, FFLUC_R_SQUARED 0.531, HEPG2TOX_HILL_SLOPE 0.947, HEPG2TOX_R_SQUARED 0.641, PBLUC_HILL_SLOPE 4.36, PBLUC_R_SQUARED 0.544, read-out: LUCIFERASE INFECTION ASSAY - IC50) was 6.62 µM.
On to `CCOC(=O)c1sc(NC(=O)c2cccc(S(=O)(=O)N(C)c3ccc(OC)cc3)c2)cc1C`, for which the IC90 worked out at 9.74 µM. Moreover, the IC50 (FFLUC_HILL_SLOPE 3.21, FFLUC_R_SQUARED 0.745, HEPG2TOX_HILL_SLOPE 15.7, HEPG2TOX_R_SQUARED 0.428, PBLUC_HILL_SLOPE 5.31, PBLUC_R_SQUARED 0.793, read-out: LUCIFERASE INFECTION ASSAY - IC50) amounted to 6.44 µM.
As to `O=[N+]([O-])c1cc(/C=N/O)ccc1Oc1ccc(Cl)cc1`, the IC90 was greater than 11.3 µM. Moreover, for the setting “PBLUC_HILL_SLOPE 1.72, PBLUC_R_SQUARED 0.416, read-out: LUCIFERASE INFECTION ASSAY - IC50”, the IC50 was 6.18 µM.
`Nc1nc(Cl)cc(Sc2ccc3ccccc3c2)n1`: the IC90 is greater than 11.5 µM. Further, the IC50 (HEPG2TOX_HILL_SLOPE 6.9, HEPG2TOX_R_SQUARED 0.449, read-out: LUCIFERASE INFECTION ASSAY - IC50) is greater than 11.5 µM.
Turning to `CCCn1c(NC(=O)C2CCCN(S(=O)(=O)c3cccs3)C2)nc2ccccc21` (stereo not drawn), the IC90 is greater than 10 µM. Also, the IC50 (FFLUC_HILL_SLOPE 15.6, FFLUC_R_SQUARED 0.229, read-out: LUCIFERASE INFECTION ASSAY - IC50) is greater than 10 µM.
Turning to `CC(C)CC(N)c1csc(NC(=O)Nc2ccc(OC(F)(F)F)cc2)n1` (stereo not drawn), the IC90 worked out at 5.1 µM. Besides, the IC50 (PBLUC_HILL_SLOPE 53.9, PBLUC_R_SQUARED 0.0664, read-out: LUCIFERASE INFECTION ASSAY - IC50) is 4.89 µM.
With `CC(C)(C)c1cnc(CSc2nc3ccc(Cl)cc3[nH]2)o1`, the IC90 is greater than 10 µM. Further, the IC50 (HEPG2TOX_HILL_SLOPE 0.519, HEPG2TOX_R_SQUARED 0.541, PBLUC_HILL_SLOPE 2.57, PBLUC_R_SQUARED 0.344, read-out: LUCIFERASE INFECTION ASSAY - IC50) amounted to 5.12 µM.
Consider `C=CCN(c1ccccc1OC)S(=O)(=O)c1ccc(Cl)c(C(=O)Nc2nc3ccccc3[nH]2)c1`, for which the IC90 was greater than 10 µM. Further, where the note is “HEPG2TOX_HILL_SLOPE 2.58, HEPG2TOX_R_SQUARED 0.695, PBLUC_HILL_SLOPE 1.17, PBLUC_R_SQUARED 0.361, read-out: LUCIFERASE INFECTION ASSAY - IC50”, the IC50 came to 2.23 µM.
